ChEMBL document CHEMBL3885881, “DrugMatrix”

Species: Rattus norvegicus
Test: DrugMatrix - Regimen: Daily Repeat
Format: toxicity, organism-based, Sprague-Dawley
Parameters: regimen Daily Repeat, gender Male, age 6-8 weeks
Details: in vivo, po, route oral GAVAGE, vehicle 100 % WATER; for ABSOLUTE BASOPHIL / ABSOLUTE EOSINOPHIL / ABSOLUTE LYMPHOCYTE / ABSOLUTE MONOCYTE / ABSOLUTE SEGMENTED NEUTROPHIL / BASOPHIL / EOSINOPHIL / ERYTHROCYTE COUNT / HEMATOCRIT / HEMOGLOBIN / LEUKOCYTE COUNT / LYMPHOCYTE / MEAN CORPUSCULAR HEMOGLOBIN / MEAN CORPUSCULAR HEMOGLOBIN CONCENTRATION / MEAN CORPUSCULAR VOLUME / MONOCYTE / NEUTROPHIL / NUCLEATED RED BLOOD CELLS / PLATELET COUNT: tissue Blood; for ALANINE AMINOTRANSFERASE / ALBUMIN / ALKALINE PHOSPHATASE / ASPARTATE AMINOTRANSFERASE / BLOOD UREA NITROGEN / CARBON DIOXIDE / CHLORIDE / CHOLESTEROL / CREATINE PHOSPHOKINASE / CREATININE / GLUCOSE / LACTATE DEHYDROGENASE / LIPASE / PHOSPHORUS / POTASSIUM / SODIUM / TOTAL BILIRUBIN / TOTAL PROTEIN / URIC ACID: tissue Plasma
[1] = 0 mg/kg, 72 h, dose level Control, time 3 day
[2] = 0 mg/kg, 120 h, dose level Control, time 5 day
[3] = 63 mg/kg, 72 h, dose level High, time 3 day

CNCCC=C1c2ccccc2CCc2ccccc21 [NORTRIPTYLINE]
ABSOLUTE BASOPHIL [1]: 0 CELLS/uL | ABSOLUTE EOSINOPHIL [1]: 123.17 CELLS/uL | ABSOLUTE LYMPHOCYTE [1]: 12677.83 CELLS/uL | ABSOLUTE MONOCYTE [1]: 66.17 CELLS/uL | ABSOLUTE SEGMENTED NEUTROPHIL [1]: 1149.5 CELLS/uL | BASOPHIL [1]: 0% | EOSINOPHIL [1]: 0.83% | ERYTHROCYTE COUNT [1]: 5.26 x10E6/uL | HEMATOCRIT [1]: 33.07% | HEMOGLOBIN [1]: 13.43 G/DL | LEUKOCYTE COUNT [1]: 14.02 x10E3/uL | LYMPHOCYTE [1]: 90.17% | MEAN CORPUSCULAR HEMOGLOBIN [1]: 25.62 pg | MEAN CORPUSCULAR HEMOGLOBIN CONCENTRATION [1]: 40.65 G/DL | MEAN CORPUSCULAR VOLUME [1]: 63 fL | MONOCYTE [1]: 0.5% | NEUTROPHIL [1]: 8.5% | NUCLEATED RED BLOOD CELLS [1]: 0.17 /100WBC | PLATELET COUNT [1]: 1142.83 x10E3/uL | ALANINE AMINOTRANSFERASE [1]: 45.17 u/L | ALBUMIN [1]: 3.78 G/DL | ALKALINE PHOSPHATASE [1]: 340.17 u/L | ASPARTATE AMINOTRANSFERASE [1]: 77.33 u/L | BLOOD UREA NITROGEN [1]: 14.67 mg/dL | CARBON DIOXIDE [1]: 28.67 mmol/L | CHLORIDE [1]: 101.17 MEQ/L | CHOLESTEROL [1]: 77.67 mg/dL | CREATINE PHOSPHOKINASE [1]: 263.67 u/L | CREATININE [1]: 0.15 mg/dL | GLUCOSE [1]: 169.33 mg/dL | LACTATE DEHYDROGENASE [1]: 230 u/L | LIPASE [1]: 9.67 u/L | PHOSPHORUS [1]: 11.8 mg/dL | POTASSIUM [1]: 5.91 MEQ/L | SODIUM [1]: 142.88 MEQ/L | TOTAL BILIRUBIN [1]: 0.22 mg/dL | TOTAL PROTEIN [1]: 5.7 G/DL | URIC ACID [1]: 1.35 mg/dL | ABSOLUTE BASOPHIL [2]: 0 CELLS/uL | ABSOLUTE EOSINOPHIL [2]: 125 CELLS/uL | ABSOLUTE LYMPHOCYTE [2]: 13809 CELLS/uL | ABSOLUTE MONOCYTE [2]: 351 CELLS/uL | ABSOLUTE SEGMENTED NEUTROPHIL [2]: 1581.67 CELLS/uL | BASOPHIL [2]: 0% | EOSINOPHIL [2]: 0.67% | ERYTHROCYTE COUNT [2]: 5.53 x10E6/uL | HEMATOCRIT [2]: 34.83% | HEMOGLOBIN [2]: 13.9 G/DL | LEUKOCYTE COUNT [2]: 15.87 x10E3/uL | LYMPHOCYTE [2]: 87.5% | MEAN CORPUSCULAR HEMOGLOBIN [2]: 25.25 pg | MEAN CORPUSCULAR HEMOGLOBIN CONCENTRATION [2]: 40.08 G/DL | MEAN CORPUSCULAR VOLUME [2]: 63.05 fL | MONOCYTE [2]: 2.17% | NEUTROPHIL [2]: 9.67% | NUCLEATED RED BLOOD CELLS [2]: 0 /100WBC | PLATELET COUNT [2]: 1044 x10E3/uL | ALANINE AMINOTRANSFERASE [2]: 50.67 u/L | ALBUMIN [2]: 4.33 G/DL | ALKALINE PHOSPHATASE [2]: 395 u/L | ASPARTATE AMINOTRANSFERASE [2]: 86 u/L | BLOOD UREA NITROGEN [2]: 15.33 mg/dL | CARBON DIOXIDE [2]: 29.33 mmol/L | CHLORIDE [2]: 101.5 MEQ/L | CHOLESTEROL [2]: 71.33 mg/dL | CREATINE PHOSPHOKINASE [2]: 323.17 u/L | CREATININE [2]: 0.18 mg/dL | GLUCOSE [2]: 145.67 mg/dL | LACTATE DEHYDROGENASE [2]: 389.5 u/L | LIPASE [2]: 9.83 u/L | PHOSPHORUS [2]: 11.35 mg/dL | POTASSIUM [2]: 6.39 MEQ/L | SODIUM [2]: 142.77 MEQ/L | TOTAL BILIRUBIN [2]: 0.18 mg/dL | TOTAL PROTEIN [2]: 6.1 G/DL | URIC ACID [2]: 1.52 mg/dL | ABSOLUTE BASOPHIL [3]: 0 CELLS/uL | ABSOLUTE EOSINOPHIL [3]: 63 CELLS/uL | ABSOLUTE LYMPHOCYTE [3]: 15345.67 CELLS/uL | ABSOLUTE MONOCYTE [3]: 215.33 CELLS/uL | ABSOLUTE SEGMENTED NEUTROPHIL [3]: 642.67 CELLS/uL | BASOPHIL [3]: 0% | EOSINOPHIL [3]: 0.33% | ERYTHROCYTE COUNT [3]: 6.2 x10E6/uL | HEMATOCRIT [3]: 38.33% | HEMOGLOBIN [3]: 14.97 G/DL | LEUKOCYTE COUNT [3]: 16.27 x10E3/uL | LYMPHOCYTE [3]: 94.33% | MEAN CORPUSCULAR HEMOGLOBIN [3]: 24.13 pg | MEAN CORPUSCULAR HEMOGLOBIN CONCENTRATION [3]: 39.07 G/DL | MEAN CORPUSCULAR VOLUME [3]: 61.83 fL | MONOCYTE [3]: 1.33% | NEUTROPHIL [3]: 4% | NUCLEATED RED BLOOD CELLS [3]: 1 /100WBC | PLATELET COUNT [3]: 1320 x10E3/uL | ALANINE AMINOTRANSFERASE [3]: 47.33 u/L | ALBUMIN [3]: 3.83 G/DL | ALKALINE PHOSPHATASE [3]: 416.67 u/L | ASPARTATE AMINOTRANSFERASE [3]: 75 u/L | BLOOD UREA NITROGEN [3]: 15 mg/dL | CARBON DIOXIDE [3]: 29.33 mmol/L | CHLORIDE [3]: 101 MEQ/L | CHOLESTEROL [3]: 74.67 mg/dL | CREATINE PHOSPHOKINASE [3]: 194 u/L | CREATININE [3]: 0.17 mg/dL | GLUCOSE [3]: 184 mg/dL | LACTATE DEHYDROGENASE [3]: 108 u/L | LIPASE [3]: 9 u/L | PHOSPHORUS [3]: 13.13 mg/dL | POTASSIUM [3]: 6.61 MEQ/L | SODIUM [3]: 143.73 MEQ/L | TOTAL BILIRUBIN [3]: 0.2 mg/dL | TOTAL PROTEIN [3]: 5.63 G/DL | URIC ACID [3]: 1.9 mg/dL
